Experimental findings from patent publication US20100226994A1, “GRANULE, TABLET AND METHODS FOR PRODUCING THE SAME” (priority 2007, published 2010) are described below.

This data set in a line: Heat storage of granule or raw substance on a tray at 70° C., residual ratio of functional substance. The class given is physicochemical.

With `O=C(O)CCCCC1CCSS1` (centres unmarked) [Comparative Example 8, Lipoic acid], under “on a tray at 70° C. for 24 hours”, the “residual ratio of lipoic acid” value amounted to 40.5%.

In the case of Vitamin E [Comparative Example 10], where the note is “on a tray at 70° C. for 72 hours”, the “residual ratio of vitamin E” value turned out to be 96.5%.
